We go through two compounds from US6020336A, “Indole and indazole compounds” (priority 1997, dated 2000).

The subject of assay [1] is saphenous vein of rabbits. The assay is described as follows: Contraction of the saphenous vein isolated from rabbit. Conditions: Oryctolagus cuniculus, rabbit saphenous vein rings; for Emax: % relative to the maximum effect induced by KCl (100 mM), read-out: maximum response (contraction of the saphenous vein); for EC50: cumulative doses 10^-9 to 10^-4 M, 37° C., tension as % of KCl maximum. The protocol:
(§1) The activity of the compounds of the invention has been evaluated in a pharmacological test that measures their potential for contracting the saphenous vein isolated from a dog or rabbit, as described by Humphrey et al. (Br. J. Pharmacol., 94, 1123, 1988).
(§2) The test are carried out on saphenous veins of dogs (10-25 kg) or of rabbits (2-3 kg) which have ben anaesthetised with pentobarbital (30 mg/kg i.v.). The saphenous veins are removed quickly and cut into rings. The rings are mounted between two hooks in vessels maintained at 37° C. containing physiological saline (composition in mM:NaCl 118.3; KCl 4.7; CaCl2 2.5; MgSO4 1.2; KH2 PO4 1.2; NaHCO3 25.0; Ca-EDTA 0.026 and glucose 11.1).
(§3) A mixture of 95% O2 --5% CO2 is bubbled through the physiological saline solution. The lower hook consists of the fixed point whilst the upper hook is connected to an isometric force sensor. The tissues are subjected to a base tension of 1.5 grammes (dog) and of 1 gramme (rabbit). The test pharmacological substances are prepared immediately prior to use; they are solubilised in water or in dimethyl sulphoxide.
(§4) After being mount, the preparations are left to rest for 60 minutes, rinsing operations being carried out every 30 minutes. The organ is then placed in the presence of phenoxybenzamine (5×10^-8 M) for 20 minutes. That agent is eliminated by a number of successive washing operations over the course of 45 minutes. After readjustment of the base tension, contraction is brought about by KCl (100 mM). After washing and return to the base line, contraction is induced by 5-hydroxytryptamine (10^-5 M).
(§5) After washing and return to the base line, a dose/response curve for the pharmacological substances is produced by the addition of cumulative doses (10^-9 to 10^-4 M).
(§6) The test enables the 50% effective concentration (EC50) of the compounds of the invention to be determined.
The EC50 is calculated in the following manner: the tension values are first converted into percentages relative to the maximum effect induced by KCl. The effective concentration 50% (ED50) is determined by non-linear regression according to the model of the law of mass action of Michaelis-Menten.

The test system of the next assay is saphenous vein of dogs. Briefly: Contraction of the saphenous vein isolated from dog. Particulars: Canis lupus familiaris, dog saphenous vein rings. The protocol:
as §1, §2, §3, §4, §5, §6
The EC50 is calculated in the following manner: the tension values are first converted into percentages relative to the maximum effect induced by KCl. […]

Each structure is given as a SMILES string. Where a name gives a salt, the structure may show the parent alone.

In the case of `COc1cncnc1N1CCN(CCCn2ccc3ccc(-n4cnnc4)cc32)CC1` [Example 5, 1-{3-[4-(5-Methoxypyrimidin-4-yl)piperazin-1-yl]propyl}-6-([1,2,4]-triazol-4-yl)indole dihydrochloride], in assay [1], the Emax worked out at 75% and the EC50 was found to be 300 nM. Also, the Emax at 100 µM in the assay with saphenous vein of dogs (100 μM, % relative to the maximum effect induced by KCl (100 mM), read-out: maximum contraction at a concentration of 100 μM) was determined as 6%.

For the compound `CN(C)CCn1ncc2ccc(-n3cnnc3)cc21` [Example 6, 1-(Dimethylaminoethyl)-6-([1,2,4]triazol-4-yl)indazole dihydrochloride], the Emax was 87% in assay [1] and 47% with saphenous vein of dogs (% relative to the maximum effect induced by KCl (100 mM), read-out: maximum response (contraction of the saphenous vein)). Besides, the EC50 in assay [1] stood at 120 nM; in the assay with saphenous vein of dogs (cumulative doses 10^-9 to 10^-4 M, 37° C., tension as % of KCl maximum), 170 nM.

As usually defined, the EC50 is the concentration at which the effect is half-maximal.
